For data set [1] the following is noted: Crystal; DTA.
The nature of data set [2]: Molar enthalpy of transition or fusion. Particulars: Crystal; DSC.

The source of these data is the NIST ThermoML archive (doi:10.1016/j.jct.2010.04.006).

Structures are written as SMILES. Numbers after ± are expanded uncertainties.

Regarding `O=C1Cc2ccccc2N1` [indolin-2-one], the Normal melting temperature in data set [1] is 125.71 ± 0.5 °C. Moreover, the “Molar enthalpy of transition or fusion” value in data set [2] was determined as 18.7 ± 0.57 kJ/mol.
